Laboratory results as given in BindingDB's records for patent US20250059185 (Hoffmann-La Roche, 2025).

Biological target: T1, Monoglyceride lipase (Homo sapiens, UniProt Q99685)
T1 sequence (Q99685 whole entry): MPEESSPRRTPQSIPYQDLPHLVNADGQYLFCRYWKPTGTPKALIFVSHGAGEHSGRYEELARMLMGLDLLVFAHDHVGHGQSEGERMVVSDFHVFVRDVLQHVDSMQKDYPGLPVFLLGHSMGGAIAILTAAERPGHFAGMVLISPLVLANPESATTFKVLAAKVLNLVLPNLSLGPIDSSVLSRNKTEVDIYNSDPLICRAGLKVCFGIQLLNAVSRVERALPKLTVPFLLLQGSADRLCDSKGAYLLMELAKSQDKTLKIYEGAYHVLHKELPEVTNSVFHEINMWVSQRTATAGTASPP
Test: MAGL Inhibitory Activity Assay
Protocol: MAGL inhibitory activity by determining the enzymatic activity by following the hydrolysis of the natural substrate 2-arachidonoylglycerol (2-AG) resulting in arachidonic acid, which can be followed by mass spectrometry. This assay is hereinafter abbreviated “2-AG assay”. The 2-AG assay was carried out in 384 well polypropylene assay plates. Compound dilutions were made in 100% DMSO in a polypropylene plate in 3-fold dilution steps to give a final concentration range in the assay from 12.5 μM to 0.8 pM. Compound dilutions were added to MAGL protein in assay buffer (50 mM TRIS, 1 mM EDTA, 0.01% (v/v) Tween-20, 2.5% (v/v) DMSO). After shaking, the plate was incubated for 15 min at RT. To start the reaction, 2-arachidonoylglycerol in assay buffer was added. The final concentrations in the assay was 50 pM for MAGL protein and […] 2-arachidonoylglyerol. After shaking and 30 min incubation at RT, the reaction was quenched by the addition of two assay volumes of acetonitrile containing 4 μM of d8-arachidonic acid. The amount of arachidonic acid formed was traced by an online SPE system (Agilent Rapidfire) coupled to a triple quadrupole mass spectrometer.

COc1cccc(C(=O)N2CCc3c(nn(C)c3-c3cc(Cl)cc(CC(N)=O)c3)[C@H]2C)c1Cl [US20250059185, Example 15]
IC50: 152 nM
